Measurements from patent publication US9340521B2, “Method for dual inhibition of SGLT1 and SGLT2 using diphenylmethane derivatives” (GREEN CROSS CORPORATION, priority 2013, dated 2016).

How the values were obtained:
Human SGLT2 (hSGLT2) = Human SGLT2 (hSGLT2) (Homo sapiens (Human), UniProt P31639); experiment: Inhibitory effects on human SGLT2 activities (14C-AMG uptake, sodium-dependent glucose transport assay); format: cell-based; conditions: hSGLT2-expressing CHO cells, 37° C. for 2 h, single determinations
Chain of Human SGLT2 (hSGLT2) (P31639 whole entry): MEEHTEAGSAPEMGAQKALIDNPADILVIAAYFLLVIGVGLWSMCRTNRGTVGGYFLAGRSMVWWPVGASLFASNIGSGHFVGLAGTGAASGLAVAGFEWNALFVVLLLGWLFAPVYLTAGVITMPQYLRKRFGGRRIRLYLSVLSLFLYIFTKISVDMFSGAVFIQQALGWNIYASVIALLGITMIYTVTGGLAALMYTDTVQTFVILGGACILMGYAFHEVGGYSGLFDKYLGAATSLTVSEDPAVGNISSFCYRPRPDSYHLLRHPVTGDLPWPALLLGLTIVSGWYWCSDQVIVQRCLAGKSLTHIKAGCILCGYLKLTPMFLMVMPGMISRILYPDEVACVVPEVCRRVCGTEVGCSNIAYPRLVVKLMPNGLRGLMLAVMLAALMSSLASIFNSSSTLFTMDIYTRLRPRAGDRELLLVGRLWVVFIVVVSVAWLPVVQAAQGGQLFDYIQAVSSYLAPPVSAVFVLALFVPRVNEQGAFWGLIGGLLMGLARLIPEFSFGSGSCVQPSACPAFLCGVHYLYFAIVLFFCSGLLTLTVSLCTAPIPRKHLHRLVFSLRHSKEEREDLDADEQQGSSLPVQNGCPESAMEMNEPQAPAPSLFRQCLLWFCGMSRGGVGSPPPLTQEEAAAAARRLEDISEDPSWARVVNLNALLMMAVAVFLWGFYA
Excerpt: Test 1: Cloning and Cell Line Construction for Human SGLT2
Human SGLT2 (hSGLT2) gene was amplified by PCR from cDNA-Human Adult Normal Tissue Kidney (Invitrogen). The hSGLT2 sequence was cloned into pcDNA3.1(+) for mammalian expression and stably transfected into chinese hamster ovary (CHO) cells. SGLT2-expressing clones were selected based on resistance to G418 antibiotic (Geneticin) and activity in the ^14C-α-methyl-D-glucopyranoside (^14C-AMG) uptake assay.
Test 2: Inhibitory Effects on Human SGLT2 Activities
(§1) For sodium-dependent glucose transport assay, cells expressing hSGLT2 were seeded into a 96-well culture plate at a density of 5×10^4 cells/well in RPMI medium 1640 containing 10% fetal bovine serum. The cells were used 1 day after plating. They were incubated in pretreatment buffer (10 mM HEPES, 5 mM Tris, 140 mM choline chloride, 2 mM KCl, 1 mM CaCl2, and 1 mM MgCl2, pH 7.4) at 37° C. for 10 min. They were then incubated in uptake buffer (10 mM HEPES, 5 mM Tris, 140 mM NaCl, 2 mM KCl, 1 mM CaCl2, 1 mM MgCl2, and 1 mM ^14C-nonlabeled AMG pH 7.4) containing ^14C-labeled AMG (8 μM) and the inventive compound or dimethyl sulfoxide (DMSO) vehicle at 37° C. for 2 h. Cells were washed twice with washing buffer (pretreatment buffer containing 10 mM AMG at room temperature) and then the radioactivity was measured using a liquid scintillation counter. IC50 was determined by nonlinear regression analysis using GraphPad PRISM [Katsuno, K. et al. J. Pharmacol. Exp. Ther. 2007, 320, 323-330; Han, S. et al. Diabetes, 2008, 57, 1723-1729].

Human SGLT1 (hSGLT1) = Human SGLT1 (hSGLT1) (Homo sapiens (Human), UniProt P13866); experiment: Inhibitory effects on human SGLT1 activities (14C-AMG uptake, sodium-dependent glucose transport assay); format: cell-based; conditions: 37° C. for 2 h, single determinations
Chain of Human SGLT1 (hSGLT1) (P13866 whole entry): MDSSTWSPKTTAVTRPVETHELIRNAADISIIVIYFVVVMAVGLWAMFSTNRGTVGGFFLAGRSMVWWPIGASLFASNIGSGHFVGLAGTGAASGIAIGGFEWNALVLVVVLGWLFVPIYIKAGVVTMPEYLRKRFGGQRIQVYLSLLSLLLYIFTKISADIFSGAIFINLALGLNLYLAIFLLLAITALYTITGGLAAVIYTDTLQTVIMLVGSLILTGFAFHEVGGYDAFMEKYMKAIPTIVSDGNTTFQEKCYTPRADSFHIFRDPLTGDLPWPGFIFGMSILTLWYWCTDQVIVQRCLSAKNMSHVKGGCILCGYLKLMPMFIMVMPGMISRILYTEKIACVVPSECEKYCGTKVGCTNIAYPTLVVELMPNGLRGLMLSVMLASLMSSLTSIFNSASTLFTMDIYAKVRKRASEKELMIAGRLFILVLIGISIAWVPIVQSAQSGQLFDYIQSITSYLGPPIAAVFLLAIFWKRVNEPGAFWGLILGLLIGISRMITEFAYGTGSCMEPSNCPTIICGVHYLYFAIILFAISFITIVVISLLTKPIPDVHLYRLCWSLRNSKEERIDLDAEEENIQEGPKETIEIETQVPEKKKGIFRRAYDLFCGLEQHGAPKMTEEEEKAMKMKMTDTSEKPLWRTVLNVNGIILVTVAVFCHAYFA
Experimental: Test 3: Inhibitory Effects on Human SGLT1 Activities
as §1, with “^14C-labeled” for “^14C-labeled AMG”, “inhibitor” for “the inventive compound”, “PRISM.” for “PRISM [Katsuno, K. et al. J. Pharmacol. Exp. Ther. 2007, 320, 323-330; Han, S. et al. Diabetes, 2008, 57, 1723-1729].”

Structure (SMILES) | IC50 (Human SGLT2 (hSGLT2)) [nM] | IC50 (Human SGLT1 (hSGLT1)) [nM]
CCOc1ccc(Cc2cc([C@@H]3O[C@H](SC)[C@@H](O)[C@H](O)[C@H]3O)c3c(c2Cl)OCCO3)cc1 [Compound E021, (2S,3R,4R,5S,6R)-2-(8-Chloro-7-(4-ethoxybenzyl)-2,3-dihydrobenzo[b][1,4]dioxin-5-yl)-6-(methylthio)tetrahydro-2H-pyran-3,4,5-triol] | 0.71 | 166
OC[C@H]1O[C@@H](c2cc(Cc3ccc(C4CC4)cc3)c(Cl)c3c2CCCO3)[C@H](O)[C@@H](O)[C@@H]1O [Compound E022, (2S,3R,4R,5S,6R)-2-(8-Chloro-7-(4-cyclopropylbenzyl)chroman-5-yl)-6-(hydroxymethyl)tetrahydro-2H-pyran-3,4,5-triol] | 0.88 | 50
COc1ccc(Cc2cc([C@@H]3O[C@H](CO)[C@@H](O)[C@H](O)[C@H]3O)c3c(c2Cl)OCCC3)cc1 [Compound E023, (2S,3R,4R,5S,6R)-2-(8-Chloro-7-(4-methoxybenzyl)chroman-5-yl)-6-(hydroxymethyl)tetrahydro-2H-pyran-3,4,5-triol] | 2.1 | 78.1
OC[C@H]1O[C@@H](c2cc(Cc3ccc(C4CC4)cc3)c(Cl)c3c2OCO3)[C@H](O)[C@@H](O)[C@@H]1O [Compound E024, (2S,3R,4R,5S,6R)-2-(7-Chloro-6-(4-cyclopropylbenzyl)benzo[d][1,3]dioxol-4-yl)-6-(hydroxymethyl)tetrahydro-2H-pyran-3,4,5-triol] | 0.37 | 53
COc1ccc(Cc2cc([C@@H]3O[C@H](CO)[C@@H](O)[C@H](O)[C@H]3O)c3c(c2Cl)OCO3)cc1 [Compound E025, (2S,3R,4R,5S,6R)-2-(7-Chloro-6-(4-methoxybenzyl)benzo[d][1,3]dioxol-4-yl)-6-(hydroxymethyl)tetrahydro-2H-pyran-3,4,5-triol] | 1.2 | 89.4
CCc1ccc(Cc2cc([C@@H]3O[C@H](CO)[C@@H](O)[C@H](O)[C@H]3O)c3c(c2Cl)OCO3)cc1 [Compound E026, (2S,3R,4R,5S,6R)-2-(7-Chloro-6-(4-ethylbenzyl)benzo[d][1,3]dioxol-4-yl)-6-(hydroxymethyl)tetrahydro-2H-pyran-3,4,5-triol] | 0.4 | 86.9
OC[C@H]1O[C@@H](c2cc(Cc3ccc(C4CC4)cc3)c(Cl)c3c2OCCO3)[C@H](O)[C@@H](O)[C@@H]1O [Compound E027, (2S,3R,4R,5S,6R)-2-(8-Chloro-7-(4-cyclopropylbenzyl)-2,3-dihydrobenzo[b][1,4]dioxin-5-yl)-6-(hydroxymethyl)tetrahydro-2H-pyran-3,4,5-triol] | 0.65 | 41.9
C=Cc1ccc(Cc2cc([C@@H]3O[C@H](CO)[C@@H](O)[C@H](O)[C@H]3O)c3c(c2Cl)OCC3)cc1 [Compound E028, (2S,3R,4R,5S,6R)-2-(7-Chloro-6-(4-vinylbenzyl)-2,3-dihydrobenzofuran-4-yl)-6-(hydroxymethyl)tetrahydro-2H-pyran-3,4,5-triol] | 0.37 | 163
COc1ccc(Cc2cc([C@@H]3O[C@H](SC)[C@@H](O)[C@H](O)[C@H]3O)c3c(c2Cl)CCCO3)cc1 [Compound E029, (2S,3R,4R,5S,6R)-2-(5-Chloro-6-(4-methoxybenzyl)chroman-8-yl)-6-(methylthio)tetrahydro-2H-pyran-3,4,5-triol] | 0.47 | 21.1
COc1ccc(Cc2cc([C@@H]3O[C@H](CO)[C@@H](O)[C@H](O)[C@H]3O)c3c(c2Cl)CCS3)cc1 [Compound E030, (2S,3R,4R,5S,6R)-2-(4-Chloro-5-(4-methoxybenzyl)-2,3-dihydrobenzo[b]thiophen-7-yl)-6-(hydroxymethyl)tetrahydro-2H-pyran-3,4,5-triol] | 2.3 | 171
CCOc1ccc(Cc2cc([C@@H]3O[C@H](CO)[C@@H](O)[C@H](O)[C@H]3O)c3c(c2Cl)C(C)CO3)cc1 (stereo partly drawn) [Compound E031, (2S,3R,4R,5S,6R)-2-(4-Chloro-5-(4-ethoxybenzyl)-3-methyl-2,3-dihydrobenzofuran-7-yl)-6-(hydroxymethyl)-tetrahydro-2H-pyran-3,4,5-triol] | 2 | 196
COc1ccc(Cc2cc([C@@H]3O[C@H](CO)[C@@H](O)[C@H](O)[C@H]3O)c3c(c2C(F)F)CCC3)cc1 [Compound E032, (2S,3R,4R,5S,6R)-2-(7-(Difluoromethyl)-6-(4-methoxybenzyl)-2,3-dihydro-1H-inden-4-yl)-6-(hydroxymethyl)tetrahydro-2H-pyran-3,4,5-triol] | 0.73 | 16.5
CCc1ccc(Cc2cc([C@@H]3O[C@H](CO)[C@@H](O)[C@H](O)[C@H]3O)c3c(c2Cl)CCC3)cc1 [Compound E033, (2S,3R,4R,5S,6R)-2-(7-Chloro-6-(4-ethylbenzyl)-2,3-dihydro-1H-inden-4-yl)-6-(hydroxymethyl)tetrahydro-2H-pyran-3,4,5-triol] | 0.63 | 57.2
COc1ccc(Cc2cc([C@@H]3O[C@H](CO)[C@@H](O)[C@H](O)[C@H]3O)c3c(c2Cl)SCC3)cc1 [Compound E034, (2S,3R,4R,5S,6R)-2-(7-Chloro-6-(4-methoxybenzyl)-2,3-dihydrobenzo[b]thiophen-4-yl)-6-(hydroxymethyl)tetrahydro-2H-pyran-3,4,5-triol] | 0.9 | 27.6
CCc1ccc(Cc2cc([C@@H]3O[C@H](CO)[C@@H](O)[C@H](O)[C@H]3O)c3c(c2Cl)SCC3)cc1 [Compound E035, (2S,3R,4R,5S,6R)-2-(7-Chloro-6-(4-ethylbenzyl)-2,3-dihydrobenzo[b]thiophen-4-yl)-6-(hydroxymethyl)tetrahydro-2H-pyran-3,4,5-triol] | 0.87 | 53
COc1ccc(Cc2cc([C@@H]3O[C@H](CO)[C@@H](O)[C@H](O)[C@H]3O)c3c(c2Cl)SCCC3)cc1 [Compound E036, (2S,3R,4R,5S,6R)-2-(8-Chloro-7-(4-methoxybenzyl)thiochroman-5-yl)-6-(hydroxymethyl)tetrahydro-2H-pyran-3,4,5-triol] | 0.55 | 10.7
COc1ccc(Cc2cc([C@@H]3O[C@H](CO)[C@@H](O)[C@H](O)[C@H]3O)c3c(c2C)CCCC3)cc1 [Compound E037, (2R,3S,4R,5R,6S)-2-(Hydroxymethyl)-6-(3-(4-methoxybenzyl)-4-methyl-5,6,7,8-tetrahydronaphthalen-1-yl)tetrahydro-2H-pyran-3,4,5-triol] | 0.86 | 10.5
COc1ccc(Cc2cc([C@@H]3O[C@H](CO)[C@@H](O)[C@H](O)[C@H]3O)c3c(c2Cl)CCCC3)cc1 [Compound E038, (2S,3R,4R,5S,6R)-2-(4-Chloro-3-(4-methoxybenzyl)-5,6,7,8-tetrahydronaphthalen-1-yl)-6-(hydroxymethyl)tetrahydro-2H-pyran-3,4,5-triol] | 0.6 | 9.6
CCOc1ccc(Cc2cc([C@@H]3O[C@H](CO)[C@@H](O)[C@H](O)[C@H]3O)c3c(c2Cl)CCCC3)cc1 [Compound E039, (2S,3R,4R,5S,6R)-2-(4-Chloro-3-(4-ethoxybenzyl)-5,6,7,8-tetrahydronaphthalen-1-yl)-6-(hydroxymethyl)tetrahydro-2H-pyran-3,4,5-triol] | 0.62 | 33.2
Cc1ccc(Cc2cc([C@@H]3O[C@H](CO)[C@@H](O)[C@H](O)[C@H]3O)c3c(c2Cl)OCO3)cc1 [Compound E040, (2S,3R,4R,5S,6R)-2-(7-Chloro-6-(4-methylbenzyl)benzo[d][1,3]dioxol-4-yl)-6-(hydroxymethyl)tetrahydro-2H-pyran-3,4,5-triol] | 1 | 94.6
Cc1ccc(Cc2cc3c(c([C@@H]4O[C@H](CO)[C@@H](O)[C@H](O)[C@H]4O)c2)CCC3)cc1 [Compound E041, (2R,3S,4R,5R,6S)-2-(Hydroxymethyl)-6-(6-(4-methylbenzyl)-2,3-dihydro-1H-inden-4-yl)tetrahydro-2H-pyran-3,4,5-triol] | 8 | 91
